Experiment: xn = mol fraction of the nth substance listed
Details: 308.2 K, Liquid, Pycnometric method

Cn1ccnc1 [1-methylimidazole] + O=C=O
Details | mass density [kg/m3]
7790 kPa, x1 = 0.0247 | 745
7860 kPa, x1 = 0.0102 | 638
7870 kPa, x1 = 0.0102 | 640
7900 kPa, x1 = 0.0102 | 646
7940 kPa, x1 = 0.0102 | 652
7950 kPa, x1 = 0.0102 | 655
7970 kPa, x1 = 0.0247 | 755
7980 kPa, x1 = 0.0102 | 661
8020 kPa, x1 = 0.0102 | 667
8080 kPa, x1 = 0.0102 | 676
8160 kPa, x1 = 0.0102 | 686
8200 kPa, x1 = 0.0247 | 766
8260 kPa, x1 = 0.0102 | 696
8380 kPa, x1 = 0.0102 | 706
8470 kPa, x1 = 0.0247 | 777
8520 kPa, x1 = 0.0102 | 716
8590 kPa, x1 = 0.0487 | 838
8680 kPa, x1 = 0.0487 | 841
8690 kPa, x1 = 0.0102 | 727
8790 kPa, x1 = 0.0487 | 844
8820 kPa, x1 = 0.0247 | 790
8910 kPa, x1 = 0.0102 | 738
8910 kPa, x1 = 0.0487 | 847
9040 kPa, x1 = 0.0487 | 849
9150 kPa, x1 = 0.0102 | 750
9150 kPa, x1 = 0.0487 | 852
9250 kPa, x1 = 0.0247 | 802
9290 kPa, x1 = 0.0487 | 853
9440 kPa, x1 = 0.0102 | 761
9450 kPa, x1 = 0.0487 | 858
9600 kPa, x1 = 0.0487 | 860
9750 kPa, x1 = 0.0247 | 815
9750 kPa, x1 = 0.0487 | 863
9800 kPa, x1 = 0.0102 | 773
9850 kPa, x1 = 0.1024 | 937
9920 kPa, x1 = 0.0487 | 866
10030 kPa, x1 = 0.1024 | 939
10130 kPa, x1 = 0.0247 | 824
10200 kPa, x1 = 0.0102 | 786
10360 kPa, x1 = 0.1024 | 942
10560 kPa, x1 = 0.0247 | 833
10630 kPa, x1 = 0.1024 | 945
10700 kPa, x1 = 0.0102 | 799
11000 kPa, x1 = 0.1024 | 948
11070 kPa, x1 = 0.0247 | 842
11250 kPa, x1 = 0.0102 | 812
11310 kPa, x1 = 0.1024 | 951
11620 kPa, x1 = 0.0247 | 851
11710 kPa, x1 = 0.1024 | 954
11920 kPa, x1 = 0.0102 | 826
12010 kPa, x1 = 0.1024 | 956
12240 kPa, x1 = 0.0247 | 860
12460 kPa, x1 = 0.1024 | 960
12590 kPa, x1 = 0.0247 | 865
12610 kPa, x1 = 0.0102 | 840
12820 kPa, x1 = 0.1024 | 963
12940 kPa, x1 = 0.0247 | 870
13250 kPa, x1 = 0.1024 | 966
13310 kPa, x1 = 0.0247 | 875
13440 kPa, x1 = 0.0102 | 859
13690 kPa, x1 = 0.1024 | 969
13720 kPa, x1 = 0.0247 | 880
14140 kPa, x1 = 0.0247 | 885
14140 kPa, x1 = 0.1024 | 972
14560 kPa, x1 = 0.0102 | 875
14570 kPa, x1 = 0.1024 | 975
14610 kPa, x1 = 0.0247 | 890
14990 kPa, x1 = 0.0102 | 880
15060 kPa, x1 = 0.0247 | 895
15080 kPa, x1 = 0.1024 | 978
15430 kPa, x1 = 0.0102 | 886

Source: the NIST ThermoML archive (doi:10.1021/je900387e)
